Measurements taken from patent publication US20030031690A1, “Cosmetic composition for preventing and treating acnes containing cryptotanshinone” (priority 2001, published 2003).
≈ marks a conversion by molar mass, not a printed value.

Assays:
Propionibacterium acnes = assay: Antibacterial ability against Propionibacterium acnes (MIC on BHI solid flat medium); assay type: cell-based; settings: P. acnes, three days
Excerpt: To measure the antibacterial ability of cryptotanshinone against Propionibacterium acnes (P. acnes hereinafter), P. acnes kept in a cold storage in original state was cultivated on a BHI (Brain Heart Infusion) solid flat medium three days before the beginning of experiment. On the day of experiment, the P. acnes previously cultivated was inoculated into BHI solid flat medium containing the predetermined concentration of cryptotanshinone. Three days later after that, the minimum inhibition concentration (MIC) is obtained by measuring the number of P. acnes. The experiment was conducted in the same manner as experimental example 5, except for using benzoyl peroxide instead of cryptotanshinone.

ears of mice = assay: Anti-inflammation effect, arachidonic acid-induced ear edema; assay type: in vivo; settings: for Thickness of ear After applying agent / Thickness of ear Before applying agent: agent 0.3% in ethanol once a day for four days, average of 7 mice; for Thickness of ear After applying agent: 2 mg/ear arachidonic acid, one hour after; for Restraint rate: agent 0.3% in ethanol, (A − B)/A × 100 against comparative group
Description: When inflammation is generated due to P. acnes, become more serious. Accordingly, the effect of alleviating the inflammation due to acne is verified by assessing the anti-inflammatory effect of cryptotanshinone. The experiment is conducted by a method using arachidonic acid (A. Crummey, G. P. Harper, E. A. Boyle and F. R. Mangan. Inhibition of arachidonic acid-induced ear oedema as a model for assessing topical anti-inflammatory compound. Agents and Actions 1987; 20:69-76).
After washing both ears of mice with ethanol before applying the agent, 201 o f cryptotanshinone having a concentration of 0.3% is applied to the ears of mice belonging to an agent application group once a day for four days, while 201 o f ethanol is applied to mice in a comparative group. One hour after the last application, ethanol is applied to the left ears of mice and 2 mg/ear of arachidonic acid is applied to the right ears of mice. One hour after that, the degree of ear edema is repeatedly measured by micrometer three times for each ear. The left ears of mice in the agent application group are used as a comparative group for measuring the degree of inflammation being induced by the agent.
The anti-inflammatory effect is assessed by the degree that the edema in the agent application group is restrained by cryptotanshinone on the basis of the comparative group to which arachidonic acid is applied. The number of mice used for each group is seven and the value is an average of those of 7 mice.
The experiments are conducted in the same manner as experimental example 6, except for respectively using stearyl glycyrrhetinate and indomethacin instead of cryptotanshinone.

5 α-reductase = assay: Inhibition of 5 α-reductase (conversion of 3H-testosterone to dihydrotestosterone, HPLC); assay type: biochemical
Description: 30 l of Phosphate Buffered Saline (PBS/pH 6.6) is mixed with 101 of dithiothreitol, NADPH, and testosterone, into which radioactive isotopes are combined (3H-1, 2, 4, 5, 6, 7-testosterone), 401 of extract liquid of enzyme 5 α-reductase, and 20 l of cryptotanshinone having 0.001% of concentration. Next, the composition mentioned above is left at the normal temperature for 10 minutes so that the materials in the composition react to each other, and then the amount of converted dihydrotestosterone are measured by HPLC and a measuring instrument of radioisotope.
Inhibition rate (%)=[…].
The experiments are conducted in the same manner as experimental example 1, except for changing the concentration of cryptotanshinone as described in Table 1.

Row | MIC (Propionibacterium acnes; Cutibacterium acnes, 72 h) [µg/mL] | Compound | Thickness of ear After applying agent (ears of mice) | Thickness of ear Before applying agent (ears of mice) | Restraint rate (ears of mice) [%] | Inhibition rate (5 α-reductase; concentration of cryptotanshinone 0.001%) [%] | Inhibition rate (5 α-reductase; concentration of cryptotanshinone 0.01%) [%] | Inhibition rate (5 α-reductase; concentration of cryptotanshinone 0.1%) [%] | Inhibition rate (5 α-reductase; concentration of cryptotanshinone 1.0%) [%] | MIC (mole) (Propionibacterium acnes)
1 | 500 to 1000 (≈ 2.06 to 4.13 mM) | O=C(OOC(=O)c1ccccc1)c1ccccc1 [Benzoyl peroxide, reference compound] | – | – | – | – | – | – | – | –
2 | – | COc1ccc2c(c1)c(CC(=O)O)c(C)n2C(=O)c1ccc(Cl)cc1 [Indomethacin, indomethacin] | 391 | 273 | 46.6 | – | – | – | – | –
3 | – | CCCCCCCCCCCCCCCCCCOC(=O)[C@@]1(C)CC[C@]2(C)CC[C@]3(C)C(=CC(=O)[C@@H]4[C@@]5(C)CC[C@H](O)C(C)(C)[C@@H]5CC[C@]43C)[C@@H]2C1 [Stearyl Glycyrrhetinate, stearyl glycyrrhetinate] | 454 | 268 | 15.8 | – | – | – | – | –
4 | – | Cryptotanshinone | 437 | 271 | 24.9 | 19.1 | 36.0 | 45.9 | 100 | 100-500 ppm
